From patent US8158806B2, “DAT1” (Department of Biotechnology, priority 2004, dated 2012)
pIC50: −log10 of the molar value. Where two headings read alike, the source gives them in different places.

Legend:
[1] = test system: SiHa; test: MTT cell viability assay, SiHa; assay type: cell-based; conditions: SiHa (Human cervix), 48 hours, average of three experiments, read-out: IC50 values (growth inhibition constants)
Protocol: (§1) The compound DAT1 was tested for its cytotoxicity on human cervical, uterus and colon cancer cell lines and mouse fibrocercoma cells. Cell lines were obtained from ATCC, USA and NCCS, Pune, India. MTT assay, which correlates a fomazan dye formation wife the number of viable cells, was used for this purpose.
(§2) • 3. Cell Viability Assay: MTT assay was used to determine fee number of viable cells upon drug addition. Cells were seeded in microtitre plates (generally 5×10^3 cells per well) and were incubated with different concentrations of the cytotoxic agents for 48 h. Subsequently, 100 μl of MTT solution (0.6 mg/ml) was added per well and incubated at 37° C. for additional 2 h. The amount of formazan salt was quantified in quadruplicates by recording fee absorbance at 570 ran using a Biorad Plate reader. The growth inhibition constants (IC50) were calculated from the semi logarithmic dose response plots using fee nonlinear regression program Origin. […] Polymerization assay: MTP polymerization, in fee presence or absence of DAT1, was measured by the time course of fee turbidity at 37° at 345 nm. […] Tubulin binding: Emission spectra of DAT1 in presence of tubulin were recorded from 400 nm to 600 nm using an excitation wavelength of 374 nm. Excitation and emission bandpasses are 2.5 nm each and the fluorescence values recorded are uncorrected. […]

[2] = test system: HeLa; test: MTT cell viability assay, HeLa; assay type: cell-based; conditions: HeLa (Human cervix), 48 hours, average of three experiments, read-out: IC50 values (growth inhibition constants)
Protocol: as §1
(§3) • 3. Cell Viability Assay: MTT assay was used to determine fee number of viable cells upon drug addition. Cells were seeded in microtitre plates (generally 5×10^3 cells per well) and were incubated with different concentrations of the cytotoxic agents for 48 h. Subsequently, 100 μl of MTT solution (0.6 mg/ml) was added per well and incubated at 37° C. for additional 2 h. The amount of formazan salt was quantified in quadruplicates by recording fee absorbance at 570 ran using a Biorad Plate reader. The growth inhibition constants (IC50) were calculated from the semi logarithmic dose response plots using fee nonlinear regression program Origin. All the experiments were done for at least three times. • 4. Microtubule and Tubulin Preparation: Microtubular protein was prepared from goat brains by two cycles of temperature dependent assembly-disassembly process in PEM buffer (100 mM PIPES, pH 6.9, 1 mM MgCl2 & 1 mM EGTA ) with 1 mM GTP at 37° C. For fee polymerization experiments, it was followed by one more cycle in PEM. Tubulin was purified from 2X MTP using glutamate buffer for assembly. • 5. Polymerization assay: MTP polymerization, in fee presence or absence of DAT1, was measured by the time course of fee turbidity at 37° at 345 nm. A Shimadzu UV-1601 double beam spectrophotometer fitted with a temperature-controlled circulating water bath was used for this purpose. • 6. […] Tubulin binding: Emission spectra of DAT1 in presence of tubulin were recorded from 400 nm to 600 nm using an excitation wavelength of 374 nm. Excitation and emission bandpasses are 2.5 nm each and the fluorescence values recorded are uncorrected. All fluorescence measurements were performed in a Perkin-Elmer model LS50B Luminescence spectrometer.

[3] = test system: SW 620; test: MTT cell viability assay, SW 620; assay type: cell-based; conditions: SW 620 (Human colon), 48 hours, average of three experiments, read-out: IC50 values (growth inhibition constants)
Protocol: as §1, §3

[4] = test system: L-929; test: MTT cell viability assay, L-929; assay type: cell-based; conditions: L929, L-929 (Mouse connective tissue), 48 hours, average of three experiments, read-out: IC50 values (growth inhibition constants)
Protocol: as §1, §2

[5] = test system: MES-SA/Dx5; test: MTT cell viability assay, multidrug resistant MES-SA/Dx5; assay type: cell-based, Human; conditions: for pIC50: MES-SA/Dx5 (Human uterus), multidrug resistant, 48 hours, MTT, average of three experiments, read-out: IC50 values (growth inhibition constants)
Protocol: as §1
• 3. Cell Viability Assay: MTT assay was used to determine fee number of viable cells upon drug addition. Cells were seeded in microtitre plates (generally 5×10^3 cells per well) and were incubated with different concentrations of the cytotoxic agents for 48 h. Subsequently, 100 μl of MTT solution (0.6 mg/ml) was added per well and incubated at 37° C. for additional 2 h. The amount of formazan salt was quantified in quadruplicates by recording fee absorbance at 570 ran using a Biorad Plate reader. The growth inhibition constants (IC50) were calculated from the semi logarithmic dose response plots using fee nonlinear regression program Origin. All the experiments were done for at least three times. • 4. Microtubule and Tubulin Preparation: Microtubular protein was prepared from goat brains by two cycles of temperature dependent assembly-disassembly process in PEM buffer (100 mM PIPES, pH 6.9, 1 mM MgCl2 & 1 mM EGTA ) with 1 mM GTP at 37° C. For fee polymerization experiments, it was followed by one more cycle in PEM. Tubulin was purified from 2X MTP using glutamate buffer for assembly. • 5. Polymerization assay: MTP polymerization, in fee presence or absence of DAT1, was measured by the time course of fee turbidity at 37° at 345 nm. A Shimadzu UV-1601 double beam spectrophotometer fitted with a temperature-controlled circulating water bath was used for this purpose. • 6. Immunofluorescence assay: HeLa cells were incubated with the drug for 24 h at 37° C., washed with PBS and fixed with 4% paraformaldehyde at 4° C. Subsequently, they were washed and permeabilized with 0.2% Triton X-100 in PBS for 20 min at 37° C. […] Tubulin binding: Emission spectra of DAT1 in presence of tubulin were recorded from 400 nm to 600 nm using an excitation wavelength of 374 nm. Excitation and emission bandpasses are 2.5 nm each and the fluorescence values recorded are uncorrected. All fluorescence measurements were performed in a Perkin-Elmer model LS50B Luminescence spectrometer.

[6] = test system: IMR 90 (lung epithelial); test: Cell survival in normal immortalized cell line; assay type: cell-based; conditions: concentration much more than the IC50 values in the cancer cell lines; data not shown
Excerpt: The cell survival in fee normal immortalized cell line IMR 90 (lung epithelial) was good after fee treatment of DAT1 in a concentration which was much more than the IC50 values in all fee cancer cell lines tested. In comparison, fee cell survival was less upon vinblastine treatment and similar upon paclitaxel treatment in similar concentrations (data not shown).

[7] = test system: CaSki; test: MTT cell viability assay, CaSki; assay type: cell-based; conditions: Ca-Ski, CaSki (Human cervix), 48 hours, average of three experiments, read-out: IC50 values (growth inhibition constants)
Protocol: as §1, §2

[8] = test system: HCT 116; test: MTT cell viability assay, HCT 116; assay type: cell-based; conditions: HCT 116 (Human colon), 48 hours, average of three experiments, read-out: IC50 values (growth inhibition constants)
Protocol: as §1, §3

[9] = test system: human cervical, uterus and colon cancer cell lines and mouse fibrocercoma cells; test: MTT cytotoxicity, panel of cancer cell lines (summary); assay type: cell-based; conditions: read-out: IC50 values, range
Protocol: as §1, §2

[10] = multidrug resistant cell line MES-SA/DX5

Row | Structure (SMILES) | pIC50 [1] | pIC50 [2] | pIC50 [3] | pIC50 [4] | pIC50 [5] | cell survival after treatment [6] | pIC50 [7] | pIC50 [8] | times more active than paclitaxel [5, 10] | times more active than vinblastine [5, 10] | pIC50 ([9]; in 2 cell lines) | pIC50 ([9]; in 5 out of the 9 cell lines tested)
1 | CC(=O)O[C@H]1C(=O)[C@@]2(C)[C@H]([C@H](OC(=O)c3ccccc3)[C@]3(O)C[C@H](OC(=O)[C@H](O)[C@@H](NC(=O)c4ccccc4)c4ccccc4)C(C)=C1C3(C)C)[C@]1(OC(C)=O)CO[C@@H]1C[C@@H]2O [Paclitaxel] | 5.96 | 7.47 | 8.15 | 6.52 | 5.07 | similar | 7.70 | 7.92 | – | – | – | –
2 | COc1ccc(Nc2nc(N)c(C(=O)c3ccccc3)s2)cc1 [DAT1, Diaminoketothiazole] | 5.30 | 7.27 | 6.70 | 6.00 | 6.46 | good | 6.70 | 6.52 | 15 times | 2 times | 5.30 to 6.00 | 6.52 to 7.30
3 | CC[C@]1(O)C[C@@H]2CN(CCc3c([nH]c4ccccc34)[C@@](C(=O)OC)(c3cc4c(cc3OC)N(C)[C@H]3[C@@](O)(C(=O)OC)[C@H](OC(C)=O)[C@]5(CC)C=CCN6CC[C@]43[C@@H]65)C2)C1 [Vinblastine] | – | 9.00 | 6.70 | – | 6.14 | less | – | 8.30 | – | – | – | –
